Test results published in ChEMBL document CHEMBL1201862, “PubChem BioAssay data set” (2004).
Active and inactive are the calls of the source.

Columns and labels:
[1] = biological target: T1, Replicative DNA helicase DnaB (Mycobacterium tuberculosis, UniProt P9WMR3); assay: DnaB intein splicing inhibitors, dose response, biochemical, cell-free fluorescence (AID 449749); type: functional
T1 sequence (P9WMR3 whole entry): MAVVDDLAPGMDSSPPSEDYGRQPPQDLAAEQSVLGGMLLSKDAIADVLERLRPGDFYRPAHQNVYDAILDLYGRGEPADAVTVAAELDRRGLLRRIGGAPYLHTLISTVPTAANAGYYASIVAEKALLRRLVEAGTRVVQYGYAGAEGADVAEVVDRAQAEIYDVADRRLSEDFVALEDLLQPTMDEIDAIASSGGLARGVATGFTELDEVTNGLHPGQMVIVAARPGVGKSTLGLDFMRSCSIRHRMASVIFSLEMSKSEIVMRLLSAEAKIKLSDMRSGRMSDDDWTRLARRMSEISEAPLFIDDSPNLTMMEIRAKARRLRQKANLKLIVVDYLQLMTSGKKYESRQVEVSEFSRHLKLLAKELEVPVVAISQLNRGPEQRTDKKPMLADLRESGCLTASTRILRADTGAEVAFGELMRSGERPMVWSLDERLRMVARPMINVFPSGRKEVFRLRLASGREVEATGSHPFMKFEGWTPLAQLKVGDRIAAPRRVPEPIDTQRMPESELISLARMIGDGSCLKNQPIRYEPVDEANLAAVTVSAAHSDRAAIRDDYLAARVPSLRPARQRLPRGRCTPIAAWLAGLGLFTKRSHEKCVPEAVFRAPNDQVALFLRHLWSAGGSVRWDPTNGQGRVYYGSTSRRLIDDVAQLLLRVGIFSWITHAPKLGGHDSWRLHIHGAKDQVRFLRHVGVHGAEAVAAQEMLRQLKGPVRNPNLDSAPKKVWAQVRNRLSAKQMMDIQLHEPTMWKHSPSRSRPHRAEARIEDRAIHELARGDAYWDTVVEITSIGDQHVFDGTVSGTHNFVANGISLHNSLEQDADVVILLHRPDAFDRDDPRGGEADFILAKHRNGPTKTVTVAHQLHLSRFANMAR

Hexokinase HKDC1 [2] = biological target: T2, Hexokinase HKDC1 (Homo sapiens, UniProt Q2TB90); assay: HKDC1 hexokinase inhibitors, dose response, biochemical, W721R variant (AID 504729); type: functional
T2 sequence (Q2TB90 whole entry): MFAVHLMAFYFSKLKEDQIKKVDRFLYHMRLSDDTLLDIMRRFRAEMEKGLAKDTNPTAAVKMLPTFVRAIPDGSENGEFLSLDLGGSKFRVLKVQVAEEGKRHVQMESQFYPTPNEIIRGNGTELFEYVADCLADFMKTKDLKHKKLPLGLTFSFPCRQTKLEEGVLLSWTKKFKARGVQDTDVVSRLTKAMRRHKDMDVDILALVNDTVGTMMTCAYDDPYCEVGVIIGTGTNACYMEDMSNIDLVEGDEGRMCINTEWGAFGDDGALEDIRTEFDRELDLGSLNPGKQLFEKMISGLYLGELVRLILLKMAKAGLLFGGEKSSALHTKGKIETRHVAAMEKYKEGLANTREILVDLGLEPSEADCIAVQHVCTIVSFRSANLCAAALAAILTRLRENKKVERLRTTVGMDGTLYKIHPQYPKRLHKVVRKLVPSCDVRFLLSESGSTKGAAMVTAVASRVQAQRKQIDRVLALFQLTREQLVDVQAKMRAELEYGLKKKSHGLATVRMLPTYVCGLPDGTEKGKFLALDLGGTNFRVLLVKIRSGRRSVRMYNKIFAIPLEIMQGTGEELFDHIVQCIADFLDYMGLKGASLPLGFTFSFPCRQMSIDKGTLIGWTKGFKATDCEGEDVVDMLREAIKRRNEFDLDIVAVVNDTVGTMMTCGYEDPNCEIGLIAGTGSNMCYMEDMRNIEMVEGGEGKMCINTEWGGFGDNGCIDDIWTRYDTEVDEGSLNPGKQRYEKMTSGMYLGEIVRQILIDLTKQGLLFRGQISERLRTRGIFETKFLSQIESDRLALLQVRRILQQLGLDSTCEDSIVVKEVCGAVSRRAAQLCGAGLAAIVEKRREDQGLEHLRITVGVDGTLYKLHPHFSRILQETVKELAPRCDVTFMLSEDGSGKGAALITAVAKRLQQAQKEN

Protein RecA = biological target: T3, Protein RecA (Mycobacterium tuberculosis, UniProt P9WHJ3); assay: Fluorescence Cell-Free Homogeneous Dose Retest to Identify Inhibitors of RecA-Intein Splicing Activity. [Related pubchem assays (depositor defined):AID2097, AID2223, AID489010, AID492950]; type: functional
T3 sequence (P9WHJ3 whole entry): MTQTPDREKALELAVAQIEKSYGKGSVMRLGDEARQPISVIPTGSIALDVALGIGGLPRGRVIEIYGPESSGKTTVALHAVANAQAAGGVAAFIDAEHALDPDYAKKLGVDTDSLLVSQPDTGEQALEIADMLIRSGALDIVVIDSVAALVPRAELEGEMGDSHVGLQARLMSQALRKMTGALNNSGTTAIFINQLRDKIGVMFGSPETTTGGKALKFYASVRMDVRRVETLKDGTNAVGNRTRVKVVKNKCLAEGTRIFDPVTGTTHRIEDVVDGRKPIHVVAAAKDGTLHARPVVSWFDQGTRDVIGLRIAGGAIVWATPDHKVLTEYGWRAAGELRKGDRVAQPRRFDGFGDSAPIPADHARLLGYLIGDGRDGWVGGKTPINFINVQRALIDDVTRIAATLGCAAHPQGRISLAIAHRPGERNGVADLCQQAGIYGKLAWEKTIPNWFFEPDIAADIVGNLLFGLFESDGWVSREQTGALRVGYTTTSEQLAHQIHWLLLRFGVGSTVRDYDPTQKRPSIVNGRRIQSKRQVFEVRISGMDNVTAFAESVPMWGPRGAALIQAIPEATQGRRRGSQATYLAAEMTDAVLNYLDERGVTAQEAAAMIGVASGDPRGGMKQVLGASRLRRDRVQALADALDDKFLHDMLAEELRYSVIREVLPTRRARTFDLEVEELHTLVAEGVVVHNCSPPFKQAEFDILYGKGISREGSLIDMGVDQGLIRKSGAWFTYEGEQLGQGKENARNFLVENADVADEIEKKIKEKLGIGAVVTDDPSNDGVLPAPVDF

Hexokinase HKDC1 [3] = biological target: T2, Hexokinase HKDC1; assay: HKDC1 hexokinase inhibitors, SAR follow-up, biochemical, set 2 (AID 588355); type: functional
Hexokinase-1 = biological target: T4, Hexokinase-1 (Homo sapiens, UniProt P19367); assay: HK1 enzyme inhibition by HKDC1 hits, SAR follow-up, selectivity assay for HKDC1 inhibitor project, biochemical, set 2, resazurin fluorescence coupled readout (AID 588356); type: functional
T4 sequence (P19367 whole entry): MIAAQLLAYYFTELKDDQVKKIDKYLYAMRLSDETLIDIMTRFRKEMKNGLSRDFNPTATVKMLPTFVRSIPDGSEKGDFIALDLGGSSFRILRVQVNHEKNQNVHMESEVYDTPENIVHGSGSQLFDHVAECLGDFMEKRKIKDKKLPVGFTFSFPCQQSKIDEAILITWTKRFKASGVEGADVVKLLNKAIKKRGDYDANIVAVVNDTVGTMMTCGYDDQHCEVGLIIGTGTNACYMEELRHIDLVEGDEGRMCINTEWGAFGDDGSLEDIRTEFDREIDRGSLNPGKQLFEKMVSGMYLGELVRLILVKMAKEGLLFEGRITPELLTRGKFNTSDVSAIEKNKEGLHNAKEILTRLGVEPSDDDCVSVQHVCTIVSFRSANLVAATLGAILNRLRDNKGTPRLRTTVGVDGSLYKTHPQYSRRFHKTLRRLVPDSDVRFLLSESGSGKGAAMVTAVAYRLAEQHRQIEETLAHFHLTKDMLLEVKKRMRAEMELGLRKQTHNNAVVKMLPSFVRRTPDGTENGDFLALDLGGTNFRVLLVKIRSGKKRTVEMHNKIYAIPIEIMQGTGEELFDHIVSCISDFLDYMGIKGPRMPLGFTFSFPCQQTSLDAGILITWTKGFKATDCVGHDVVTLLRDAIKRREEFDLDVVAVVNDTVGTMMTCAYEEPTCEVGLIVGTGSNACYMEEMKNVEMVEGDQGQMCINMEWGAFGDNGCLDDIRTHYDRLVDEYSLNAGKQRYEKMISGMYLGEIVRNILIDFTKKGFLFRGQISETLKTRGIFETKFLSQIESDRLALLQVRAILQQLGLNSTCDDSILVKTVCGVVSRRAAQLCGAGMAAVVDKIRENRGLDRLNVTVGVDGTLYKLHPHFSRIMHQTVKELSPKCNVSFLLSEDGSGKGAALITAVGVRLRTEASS

[4] = biological target: Cystic fibrosis transmembrane conductance regulator/Golgi-associated PDZ and coiled-coil motif-containing protein (Homo sapiens, UniProt P13569+Q9HD26); assay: CAL PDZ peptide-binding inhibitors, dose response, biochemical, fluorescence polarization, Cerulean-tagged CAL PDZ, cherry-picks (AID 504773)
Chain of Cystic fibrosis transmembrane conductance regulator/Golgi-associated PDZ and coiled-coil motif-containing protein (P13569 whole entry, other chains not shown): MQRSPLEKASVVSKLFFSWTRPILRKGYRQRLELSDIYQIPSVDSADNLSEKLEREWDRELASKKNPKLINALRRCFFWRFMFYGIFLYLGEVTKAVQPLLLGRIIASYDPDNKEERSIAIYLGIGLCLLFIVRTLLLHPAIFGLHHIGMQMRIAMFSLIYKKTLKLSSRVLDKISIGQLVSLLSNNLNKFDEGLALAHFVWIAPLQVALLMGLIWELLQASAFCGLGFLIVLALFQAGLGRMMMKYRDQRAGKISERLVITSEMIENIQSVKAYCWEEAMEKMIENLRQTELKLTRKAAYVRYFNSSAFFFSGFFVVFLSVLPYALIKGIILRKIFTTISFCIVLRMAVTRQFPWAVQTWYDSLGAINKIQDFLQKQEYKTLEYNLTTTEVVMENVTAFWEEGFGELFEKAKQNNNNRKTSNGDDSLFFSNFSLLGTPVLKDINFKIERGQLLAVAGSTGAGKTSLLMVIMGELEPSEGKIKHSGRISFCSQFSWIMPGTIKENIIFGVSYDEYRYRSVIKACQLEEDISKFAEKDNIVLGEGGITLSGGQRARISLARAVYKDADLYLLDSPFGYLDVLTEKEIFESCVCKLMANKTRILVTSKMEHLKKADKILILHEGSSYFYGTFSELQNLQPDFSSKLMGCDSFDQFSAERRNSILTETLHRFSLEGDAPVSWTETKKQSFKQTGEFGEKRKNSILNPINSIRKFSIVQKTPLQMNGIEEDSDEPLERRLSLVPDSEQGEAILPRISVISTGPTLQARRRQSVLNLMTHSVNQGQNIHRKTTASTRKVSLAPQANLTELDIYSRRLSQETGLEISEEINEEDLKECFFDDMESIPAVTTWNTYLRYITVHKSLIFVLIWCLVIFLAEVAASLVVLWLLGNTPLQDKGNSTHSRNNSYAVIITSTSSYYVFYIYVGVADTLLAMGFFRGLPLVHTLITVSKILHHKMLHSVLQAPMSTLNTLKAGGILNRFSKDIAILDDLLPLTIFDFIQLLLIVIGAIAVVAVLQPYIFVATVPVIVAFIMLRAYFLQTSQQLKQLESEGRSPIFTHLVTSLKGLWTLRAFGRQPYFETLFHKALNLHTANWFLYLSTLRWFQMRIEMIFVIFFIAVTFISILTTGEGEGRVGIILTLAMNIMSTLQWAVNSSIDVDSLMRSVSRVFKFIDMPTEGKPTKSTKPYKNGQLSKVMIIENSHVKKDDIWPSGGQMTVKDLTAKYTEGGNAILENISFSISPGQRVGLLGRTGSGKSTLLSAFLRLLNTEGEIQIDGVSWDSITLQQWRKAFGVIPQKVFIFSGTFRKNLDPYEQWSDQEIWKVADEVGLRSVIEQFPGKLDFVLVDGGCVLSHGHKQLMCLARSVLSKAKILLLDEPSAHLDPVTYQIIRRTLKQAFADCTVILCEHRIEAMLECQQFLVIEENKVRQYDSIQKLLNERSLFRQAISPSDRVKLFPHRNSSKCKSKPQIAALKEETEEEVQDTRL

[5] = growth suppression of PTEN-null colon cells, dose response, cell-based, HCT116 PTEN knockout (AID 1047); type: functional;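 also: HCT116 colon tumor cells with PTEN knocked out; cells exposed to compound for 60 hours before readout; potency for loss of cell viability measured by luminescence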
[6] = microbe, parasite or virus in culture; type: functional; conditions: Mycobacterium tuberculosis
[7] = biological target: T5, Microphthalmia-associated transcription factor (Homo sapiens, UniProt O75030); assay: TRPM1 promoter luciferase signal decrease, dose response, MITF inhibitor project, cell-based, SK-MEL-5, cherry-picked, set 3 (AID 493073); type: functional
T5 sequence (O75030 whole entry): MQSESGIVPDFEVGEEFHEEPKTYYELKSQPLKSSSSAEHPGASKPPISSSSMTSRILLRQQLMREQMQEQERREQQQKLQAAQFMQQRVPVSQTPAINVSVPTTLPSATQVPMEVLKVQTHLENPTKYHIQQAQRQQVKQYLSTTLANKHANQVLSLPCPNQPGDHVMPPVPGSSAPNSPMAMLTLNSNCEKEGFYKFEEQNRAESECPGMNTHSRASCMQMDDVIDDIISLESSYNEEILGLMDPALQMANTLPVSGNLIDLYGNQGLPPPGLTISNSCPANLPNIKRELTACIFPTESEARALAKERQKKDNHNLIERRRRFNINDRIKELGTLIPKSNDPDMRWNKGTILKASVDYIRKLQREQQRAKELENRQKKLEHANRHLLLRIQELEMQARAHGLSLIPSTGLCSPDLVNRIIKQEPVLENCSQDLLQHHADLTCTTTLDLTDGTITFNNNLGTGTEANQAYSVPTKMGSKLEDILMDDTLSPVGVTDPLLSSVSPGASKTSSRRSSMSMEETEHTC

INS1 = assay: beta cell apoptosis inhibitors, cytokine rescue, dose response, luminescence, retest (AID 449756); type: functional, cell-based; conditions: Rattus norvegicus;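 also: cell death triggered by IL-1 beta plus TNF-alpha plus IFN-gamma mixture; protective hits raise ATP signal compared with cytokine alone wells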
A-375 = assay: A375 melanoma cell viability reduction, dose response, counter-screen for MITF modulator project, cherry-pick samples, set 2 (AID 540335); type: functional, cell-based; conditions: Homo sapiens
[8] = growth suppression of beta-catenin-knockout colon cells, dose response, cell-based, HCT116, human colon tumor (AID 1045); type: functional;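 also: HCT116 colon tumor cells with beta catenin knocked out; cells exposed to compound for 60 hours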

CCOc1ccc2c(c1)C(NC(C)=O)C(=O)N2CCN1CCOCC1 (configuration not stated)
active: AC50 [1] 27.8 µM | IC50 (Hexokinase HKDC1 [2]) 6.63 µM | EC50 (Protein RecA) 12.6 µM | IC50 (Hexokinase HKDC1 [3]) 8.44 µM | AC50 [4] 27.3 µM
inactive: IC50 (Hexokinase-1) > 80 µM

CC1CCC(C(C)C)C(OC(=O)Cn2c(-c3ccc(F)cc3)[n+](C)c3ccccc32)C1 (configuration not stated)
active: EC50 [5] 4.98 µM | CC50 [6] 40 µM | AC50 [7] 5.57 µM | AC50 (INS1) 3.69 µM | AC50 (A-375) 47.2 µM | EC50 [8] 4.18 µM
